According to ChEMBL document CHEMBL1268938, “Identification of a red-emitting fluorescent ligand for in vitro visualization of human serotonin 5-HT(1A) receptors” (Bioorg Med Chem Lett, 2010):

Biological target: T1, 5-hydroxytryptamine receptor 1A (Homo sapiens, UniProt P08908)
T1 sequence (P08908 whole entry): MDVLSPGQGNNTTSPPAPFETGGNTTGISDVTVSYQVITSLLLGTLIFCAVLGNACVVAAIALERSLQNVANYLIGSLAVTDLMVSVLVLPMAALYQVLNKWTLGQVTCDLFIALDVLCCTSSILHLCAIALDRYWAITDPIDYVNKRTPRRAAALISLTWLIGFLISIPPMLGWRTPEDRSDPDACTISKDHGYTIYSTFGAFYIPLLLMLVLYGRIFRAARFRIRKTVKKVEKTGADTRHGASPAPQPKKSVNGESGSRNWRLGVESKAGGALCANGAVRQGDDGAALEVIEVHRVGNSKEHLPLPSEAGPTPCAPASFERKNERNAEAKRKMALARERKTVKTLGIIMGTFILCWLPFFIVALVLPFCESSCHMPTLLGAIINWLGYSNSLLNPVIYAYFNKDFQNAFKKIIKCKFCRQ
Assay: Displacement of [3H]8-OH-DPAT from human cloned 5HT1A receptor expressed in HEK293 cells
Format: cell-based

Row | Structure (SMILES) | Ki
1 | COc1ccccc1N1CCN(CCCCCNC(=O)c2ccc(SC3=C(/C=C/C4=[N+](CCCCS(=O)(=O)[O-])c5ccccc5C4(C)C)CCC/C3=C\C=C3\N(CCCCS(=O)(=O)O)c4ccccc4C3(C)C)cc2)CC1 | 65.8 nM
2 | COc1ccccc1N1CCN(CCc2cccc(OCCCCCOc3cccc(CCN4CCN(c5ccccc5OC)CC4)c3)c2)CC1 | 1.7 nM
3 | COc1cccc(CCN2CCN(c3ccccc3OC)CC2)c1 | 2.4 nM
4 | CCN(CC)c1ccc2cc(/C=C/C3=[N+](CCCCCC(=O)Oc4cccc(CCN5CCN(c6ccccc6OC)CC5)c4)c4ccccc4C3(C)C)c(=O)oc2c1 | 35 nM
5 | CCCCCN1CCN(c2ccccc2OC)CC1 | 5.16 nM
